Earlier results in patent US20130129668A1, “Diagnosis and treatment of arthritis using epigenetics” (The Regents of the University of California, priority 2011, published 2013).

Tests used:
[1] = tested on: T cells
[2] = tested on: FLS; details: FLS cultured in the presence of 5-azaC for 3 months

SMILES: Nc1ncn([C@H]2C[C@H](O)[C@@H](CO)O2)c(=O)n1 [5-azaC, 5-aza-2′-deoxycytidine]
- autoreactivity [1]: enhances autoreactivity
- expression of T cell genes (IFNα, IL-4, CD70, LFA-1) [1]: affects expression of many T cell genes
- expression of genes implicated in RA [2]: increased expression of several genes
